Experimental data from article PMC9927463, “Identification and Characterization of Corynaridin, a Novel Linaridin from Corynebacterium lactis” (Microbiology Spectrum, 2022).

What was measured:
[1] = tested on: C. glutamicum ATCC 13032/pPB-pHin2^Cg; assay: pHluorin assay for membrane damage; format: cell-based, Corynebacterium glutamicum; details: LMB pH 6.2, 30 min room temperature
Protocol: For detection of membrane damage, a pHluorin assay was conducted as described earlier ([34]). In particular, a 5-mL BHI overnight culture containing kanamycin (50 μg/mL) of the sensor strain C. glutamicum ATCC 13032/pPB-pHin2^Cg was harvested by centrifugation and resuspended to an OD600 of 3 in Listeria minimal buffer [LMB: 100 mM MOPS, 4.82 mM KH2PO4, 11.52 mM Na2HPO4, 1.7 mM MgSO4, 0.6 g/L (NH4)2SO4, 55 mM glucose (pH 6.2)]. Serial 2-fold dilutions of samples were prepared in black 96-well microtiter plates (Sarsted, Nümbrecht, Germany) with a final volume of 100 μL in each well. Subsequently, 100 μL of the sensor strain suspension was added and the plate was incubated at room temperature in the dark for 30 min. Then, pHluorin2 fluorescence was measured at 520 nm with excitation at the distinct maxima at 400 and 480 nm using an infinite M200 plate reader (Tecan, Männedorf, Switzerland).

C. glutamicum ATCC 13032 [2] = assay: time-kill kinetics; format: cell-based, Corynebacterium glutamicum
Protocol: Fresh overnight cultures of C. glutamicum ATCC 13032 were used to inoculate 5 mL 2× TY in glass tubes with a starting OD600 of 0.5 (i.e., ~10^7 CFU/mL). Samples of interest were added at the indicated concentrations prior to inoculation of the medium. Cultures were then incubated on a rotary shaker at 130 rpm for 24 h at 30°C. Samples were collected at the indicated time points, diluted (10^−1 to 10^−8), and plated on 2× TY agar. CFU per milliliter were determined after 24 to 48 h of incubation of the plates at 30°C by counting the colonies for the respective dilution.

proteinase K = proteinase K (Parengyodontium album, UniProt P06873); assay: resistance to protease treatment; format: in vitro ADME
Protocol: (§1) To assess the physicochemical properties of the purified compound, it was tested for resistance to protease and heat treatment (Fig. 3c and d). While a reduction of activity of the RPC fraction to 8,000 BU/mL (i.e., about 4-fold) was observed after incubation with trypsin or proteinase K, heat treatment at 80°C and 100°C for 10 min had no effect.

[3] = tested on: Corynebacterium glutamicum ATCC 13032; assay: spot-on-lawn assay; format: cell-based; parameters: key to Activity, RPC fraction: +: zone of inhibition; (+): diffuse zone of inhibition; −: no zone of inhibition
Protocol: (§2) Antimicrobial activity was determined using a spot-on-lawn assay. Overnight cultures of the respective strains were inoculated with an OD600 of 0.01 into hand-warmed agar medium (16 g/L agar) and poured into sterile petri dishes. After solidification, surfaces of agar plates were air dried at room temperature under a sterile hood. Supernatants and purification fractions were serially diluted and spotted onto agar plates. Plates were incubated under the preferred conditions of the embedded bacteria until growth was visible. Volumetric bacteriocin activity (bacteriocin units [BU] per milliliter) was determined by dividing the last dilution factor resulting in a visible zone of inhibition by the volume spotted.

[4] = tested on: Cutibacterium acnes DSM 16379; assay: spot-on-lawn assay; format: cell-based; parameters: key to Activity, RPC fraction: +: zone of inhibition; (+): diffuse zone of inhibition; −: no zone of inhibition
Protocol: as §2

Listeria innocua LMG2785 = assay: spot-on-lawn assay; format: cell-based; parameters: key to Activity, RPC fraction: +: zone of inhibition; (+): diffuse zone of inhibition; −: no zone of inhibition
Protocol: as §2

[5] = tested on: Corynebacterium efficiens DSM 44549; assay: spot-on-lawn assay; format: cell-based; parameters: key: +: zone of inhibition; (+): diffuse zone of inhibition; −: no zone of inhibition; details: ten-microliter RPC fraction
Protocol: as §2

[6] = tested on: Corynebacterium casei DSM 44701; assay: spot-on-lawn assay; format: cell-based; parameters: key: +: zone of inhibition; (+): diffuse zone of inhibition; −: no zone of inhibition; details: ten-microliter RPC fraction
Protocol: as §2

[7] = tested on: Lactococcus lactis IL1403; assay: spot-on-lawn assay; format: cell-based; parameters: key: +: zone of inhibition; (+): diffuse zone of inhibition; −: no zone of inhibition; details: ten-microliter RPC fraction
Protocol: as §2

[8] = tested on: Corynebacterium amycolatum DSM 6922; assay: spot-on-lawn assay; format: cell-based; parameters: key: +: zone of inhibition; (+): diffuse zone of inhibition; −: no zone of inhibition; details: ten-microliter RPC fraction
Protocol: as §2

[9] = tested on: Pediococcus acidilactici 347; assay: spot-on-lawn assay; format: cell-based; parameters: key: +: zone of inhibition; (+): diffuse zone of inhibition; −: no zone of inhibition; details: ten-microliter RPC fraction
Protocol: as §2

[10] = tested on: Escherichia coli K-12 MG1655; assay: spot-on-lawn assay; format: cell-based; parameters: key: +: zone of inhibition; (+): diffuse zone of inhibition; −: no zone of inhibition; details: ten-microliter RPC fraction
Protocol: as §2

[11] = tested on: Corynebacterium ammoniagenes DSM 20306; assay: spot-on-lawn assay; format: cell-based; parameters: key: +: zone of inhibition; (+): diffuse zone of inhibition; −: no zone of inhibition; details: ten-microliter RPC fraction
Protocol: as §2

[12] = tested on: Listeria monocytogenes EGD-e; assay: spot-on-lawn assay; format: cell-based; parameters: key: +: zone of inhibition; (+): diffuse zone of inhibition; −: no zone of inhibition; details: ten-microliter RPC fraction
Protocol: as §2

[13] = tested on: Corynebacterium striatum DSM 20668; assay: spot-on-lawn assay; format: cell-based; parameters: key: +: zone of inhibition; (+): diffuse zone of inhibition; −: no zone of inhibition; details: ten-microliter RPC fraction
Protocol: as §2

[14] = tested on: Staphylococcus aureus ATCC 29213; assay: spot-on-lawn assay; format: cell-based; parameters: key: +: zone of inhibition; (+): diffuse zone of inhibition; −: no zone of inhibition; details: ten-microliter RPC fraction
Protocol: as §2

[15] = tested on: Staphylococcus epidermidis DSM 3269; assay: spot-on-lawn assay; format: cell-based; parameters: key: +: zone of inhibition; (+): diffuse zone of inhibition; −: no zone of inhibition; details: ten-microliter RPC fraction
Protocol: as §2

[16] = tested on: Lactobacillus plantarum DSM 1055; assay: spot-on-lawn assay; format: cell-based; parameters: key: +: zone of inhibition; (+): diffuse zone of inhibition; −: no zone of inhibition; details: ten-microliter RPC fraction
Protocol: as §2

[17] = tested on: Pseudomonas fluorescens DSM 50090; assay: spot-on-lawn assay; format: cell-based; parameters: key: +: zone of inhibition; (+): diffuse zone of inhibition; −: no zone of inhibition; details: ten-microliter RPC fraction
Protocol: as §2

[18] = tested on: Micrococcus luteus DSM 20030; assay: spot-on-lawn assay; format: cell-based; parameters: key: +: zone of inhibition; (+): diffuse zone of inhibition; −: no zone of inhibition; details: ten-microliter RPC fraction
Protocol: as §2

[19] = tested on: Bacillus subtilis DSM 402; assay: spot-on-lawn assay; format: cell-based; parameters: key: +: zone of inhibition; (+): diffuse zone of inhibition; −: no zone of inhibition; details: ten-microliter RPC fraction
Protocol: as §2

[20] = tested on: Corynebacterium xerosis DSM 20743; assay: spot-on-lawn assay; format: cell-based; parameters: key: +: zone of inhibition; (+): diffuse zone of inhibition; −: no zone of inhibition; details: ten-microliter RPC fraction
Protocol: as §2

[21] = tested on: Corynebacterium lipophiloflavum DSM 44291; assay: spot-on-lawn assay; format: cell-based; parameters: key: +: zone of inhibition; (+): diffuse zone of inhibition; −: no zone of inhibition; details: ten-microliter RPC fraction
Protocol: as §2

trypsin = format: in vitro ADME
Protocol: as §1

C. glutamicum ATCC 13032 [22] = assay: fluorescence microscopy of propidium iodide-stained bacteria; format: cell-based, Corynebacterium glutamicum; details: 4,000-BU/mL RPC fraction, 10 to 30 min incubation
Protocol: A fresh culture of C. glutamicum ATCC 13032 was washed once in phosphate-buffered saline (PBS), and bacteria were resuspended in saline (0.9% [wt/vol] NaCl) at an OD600 of 1. An 87.5-μL concentration of the cell suspension was mixed with nisin, cetyltrimethylammonium bromide (CTAB), H2O, or the RPC fraction containing corynaridin to the indicated concentrations and incubated for 10 to 30 min in the dark. Then, the bacteria were stained using 12.5 μL propidium iodide (25 μg/mL) (Invitrogen, Darmstadt, Germany) and again incubated for 15 min in the dark. Samples were imaged using a Axio Observer Z1 (Zeiss, Oberkochen, Germany) in bright-field and fluorescence mode with a filter set for propidium iodide (excitation at 575 to 625 nm, emission at 660 to 710 nm). Images were acquired with a 63× lens objective and analyzed using the Zen software (version 2.3 SP1; Zeiss).

[23] = resistance to heat treatment; format: physicochemical; details: read-out spot-on-lawn, 10-μL sample
Protocol: as §1

Micrococcus luteus = details: cited from earlier work
Description: (§3) While extensive studies have been carried out on the structure and chemistry behind their modifications, comparably little is known about the biological functions of linaridins. […] So far, for none of the hitherto described linaridins receptors or mode of action have been prop ...

[24] = tested on: Streptococcus pyogenes strain; details: cited from earlier work
Description: as §3

Chain of proteinase K (P06873 106-384): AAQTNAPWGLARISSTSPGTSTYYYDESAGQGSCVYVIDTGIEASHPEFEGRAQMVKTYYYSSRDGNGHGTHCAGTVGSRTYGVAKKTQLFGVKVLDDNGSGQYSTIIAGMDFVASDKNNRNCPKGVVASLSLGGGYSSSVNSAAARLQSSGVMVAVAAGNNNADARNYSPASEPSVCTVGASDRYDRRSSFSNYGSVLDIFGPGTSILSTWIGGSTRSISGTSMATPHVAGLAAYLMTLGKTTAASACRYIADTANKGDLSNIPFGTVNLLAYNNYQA

CCCCCCCCCCCCCCCC[N+](C)(C)C [CTAB, cetyltrimethylammonium bromide]
change of pHluorin2 fluorescence ratio (excitation 400/480 nm) ([1]; positive controls): reduced fluorescence ratios

O=C(N[C@H](CO)[C@H](O)c1ccc([N+](=O)[O-])cc1)C(Cl)Cl [chloramphenicol, reference compound]
CFU per milliliter throughout the experiment (C. glutamicum ATCC 13032 [2]; 6.5 μg/mL, 2x TY, 30°C, 24 h): stable levels of CFU per milliliter

corynaridin
reduction of activity after incubation with proteinase K (proteinase K; 32,000 to 8,000 BU/mL): about 4 fold
activity of the RPC fraction after incubation with proteinase K (proteinase K; starting activity 32,000 BU/mL, read-out spot-on-lawn, 10-μL sample, RPC fraction 606 μg/mL total protein): 8,000 BU/mL
CFU/mL after 24 h (C. glutamicum ATCC 13032 [2]; RPC fraction at 400 BU/mL (lower concentration)): slightly increased CFU/mL after 24 h
decrease of CFU per milliliter after 2 h (C. glutamicum ATCC 13032 [2]; RPC fraction at 400 BU/mL, 2x TY, 30°C, start ~10^7 CFU/mL): 4 orders of magnitude
CFU/mL after 24 h (C. glutamicum ATCC 13032 [2]; RPC fraction at 1,060 BU/mL (high concentration)): remained at low levels of CFU/mL
decrease of CFU per milliliter after 2 h (C. glutamicum ATCC 13032 [2]; RPC fraction at 1,060 BU/mL, 2x TY, 30°C, start ~10^7 CFU/mL): 4 orders of magnitude
volumetric bacteriocin activity of RPC preparation ([3]; purified from CLI culture supernatant (ammonium sulfate, CIEX, RPC), resuspended in HPLC-grade H2O, BU/mL = last inhibiting dilution factor / volume spotted): 32,000 BU/mL
volumetric bacteriocin activity of RPC sample for LC-MS ([3]; purified from CLIV minimal medium supernatant (CIEX, RPC), corresponding to 0.5 μg/mL protein): 40,000 BU/mL
Activity, RPC fraction ([3]; spot-on-lawn, ten-microliter RPC fraction): +
Activity, RPC fraction ([4]; ten-microliter RPC fraction): (+)
concentration of RPC fraction at which low levels of inhibition were achieved ([4]; total protein of RPC fraction): > 1,000 μg/mL
Activity, RPC fraction (Listeria innocua LMG2785; ten-microliter RPC fraction): (+)
concentration of RPC fraction at which low levels of inhibition were achieved (Listeria innocua LMG2785; total protein of RPC fraction): > 1,000 μg/mL
Activity, RPC fraction [5]: +
Activity, RPC fraction [6]: +
Activity, RPC fraction [7]: +
Activity, RPC fraction [8]: +
Activity, RPC fraction [9]: −
Activity, RPC fraction [10]: −
Activity, RPC fraction [11]: +
Activity, RPC fraction [12]: −
Activity, RPC fraction [13]: +
Activity, RPC fraction [14]: −
Activity, RPC fraction [15]: −
Activity, RPC fraction [16]: −
Activity, RPC fraction [17]: −
Activity, RPC fraction [18]: +
Activity, RPC fraction [19]: −
Activity, RPC fraction [20]: +
Activity, RPC fraction [21]: +
reduction of activity after incubation with trypsin (trypsin): about 4 fold
membrane integrity by propidium iodide staining (C. glutamicum ATCC 13032 [22]): no evidence for compromised integrity
change of pHluorin2 fluorescence ratio (excitation 400/480 nm) ([1]; concentrations up to 10,000 BU/mL, at least three biological replicates): did not result in a change of fluorescence ratios
effect of heat treatment on activity ([23]; 80°C for 10 min): no effect
effect of heat treatment on activity ([23]; 100°C for 10 min): no effect

cypemycin
antimicrobial activity (Micrococcus luteus): limited to Micrococcus luteus

nisin [reference compound]
reduced number of CFU/mL after 2 h (C. glutamicum ATCC 13032 [2]; 1.25 μg/mL, 2x TY, 30°C, start ~10^7 CFU/mL): > 4 log
change of pHluorin2 fluorescence ratio (excitation 400/480 nm) ([1]; positive controls): reduced fluorescence ratios

salinipeptins
growth inhibition [24]: inhibit growth
